Test results reported in patent publication US9139557B2, “Carboxamide compounds and their use as calpain inhibitors” (Abbott GmbH & Co. KG, priority 2006, dated 2015).

Key:
Type in all cases: biochemical
cathepsin S = target: T1, cathepsin S (Homo sapiens, UniProt P25774); assay: Cathepsin S enzyme inhibition in vitro (kinetic fluorescence assay); conditions: Ki(cathepsin S)/Ki(calpain) ratio
T1 construct: purchased Calbiochem 219343; host or cells: E. coli
Summary of the method: (§1)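 Kinetic fluorescence (ex 390/em 460 nm), room temperature: calpain-I (human erythrocyte, 20 nM) with 100 µM Suc-Leu-Tyr-AMC, imidazole/CaCl2 pH 7.3; cathepsin B (liver, 0.25 nM), 100 µM Z-Phe-Arg-AMC; L (liver, 1 nM), 2 µM Z-Phe-Arg-AMC; S (recombinant, 0.5 nM), 20 µM Z-Val-Val-Arg-AMC; cathepsins in MES/EDTA/cysteine pH 6.0. Apparent Ki via Cheng-Prusoff, 2–4 curves averaged.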

cathepsin L = target: T2, cathepsin L (Homo sapiens, UniProt P07711); assay: Cathepsin L enzyme inhibition in vitro (kinetic fluorescence assay); conditions: Ki(cathepsin L)/Ki(calpain) ratio
T2 construct: cathepsin L—isolated from human liver; purchased Calbiochem 219402; host or cells: human liver (tissue isolate)
T2 sequence (P07711 114-333): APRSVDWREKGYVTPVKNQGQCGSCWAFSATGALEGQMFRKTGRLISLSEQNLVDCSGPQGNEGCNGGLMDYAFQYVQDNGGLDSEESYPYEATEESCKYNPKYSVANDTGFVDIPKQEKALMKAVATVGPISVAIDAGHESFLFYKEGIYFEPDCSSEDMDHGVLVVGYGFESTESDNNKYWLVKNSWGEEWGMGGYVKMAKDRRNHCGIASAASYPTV
Summary of the method: as §1

cathepsin B = target: T3, cathepsin B (Homo sapiens, UniProt P07858); assay: Cathepsin B enzyme inhibition in vitro (kinetic fluorescence assay); conditions: Ki(cathepsin B)/Ki(calpain) ratio
T3 construct: cathepsin B—isolated from human liver; purchased Calbiochem 219362; host or cells: human liver (tissue isolate)
Summary of the method: as §1

cathepsin K = target: T4, cathepsin K (Homo sapiens, UniProt P43235); assay: Cathepsin K enzyme inhibition in vitro (kinetic fluorescence assay); conditions: Ki(cathepsin K)/Ki(calpain) ratio
T4 construct: purchased Calbiochem 342001; host or cells: E. coli
T4 sequence (P43235 115-329): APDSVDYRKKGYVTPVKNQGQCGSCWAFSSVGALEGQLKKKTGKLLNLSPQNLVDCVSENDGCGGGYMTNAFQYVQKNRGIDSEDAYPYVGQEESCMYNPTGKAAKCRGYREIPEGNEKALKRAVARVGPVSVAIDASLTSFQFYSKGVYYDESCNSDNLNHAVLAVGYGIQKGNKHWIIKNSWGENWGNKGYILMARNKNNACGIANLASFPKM

T1 sequence (P25774 115-331): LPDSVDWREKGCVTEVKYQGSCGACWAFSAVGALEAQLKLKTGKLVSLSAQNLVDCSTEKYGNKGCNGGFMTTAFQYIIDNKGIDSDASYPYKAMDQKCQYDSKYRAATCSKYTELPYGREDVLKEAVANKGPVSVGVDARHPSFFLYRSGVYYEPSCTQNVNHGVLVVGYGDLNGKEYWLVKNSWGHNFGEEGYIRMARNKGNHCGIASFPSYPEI

Compound: NC(=O)C(=O)C(Cc1ccccc1)NC(=O)c1cccnc1-n1ccc(-c2cccc(Cl)c2Cl)n1 (stereo not drawn) [Example 115, N-[3-Amino-2,3-dioxo-1-(phenylmethyl)propyl]-2-[3-(2,3-dichlorophenyl)-1H-pyrazol-1-yl]pyridine-3-carboxamide]
- Sel cat. S (cathepsin S): ++ (++ means a Ki(cathepsin S)/Ki(calpain) ratio of ≧100)
- Sel cat. L (cathepsin L): ++ (++ means a Ki(cathepsin L)/Ki(calpain) ratio of ≧50)
- Sel cat. B (cathepsin B): ++ (++ means a Ki(cathepsin B)/Ki(calpain) ratio of ≧30)
- Sel cat. K (cathepsin K): ++ (++ means a Ki(cathepsin K)/Ki(calpain) ratio of ≧30)

Compound: NC(=O)C(=O)C(Cc1ccccc1)NC(=O)c1cccnc1-n1ccc(-c2c(F)cc(F)cc2F)n1 (stereo not drawn) [Example 116, N-[3-Amino-2,3-dioxo-1-(phenylmethyl)propyl]-2-[3-(2,4,6-trifluorophenyl)-1H-pyrazol-1-yl]pyridine-3-carboxamide]
- Sel cat. S (cathepsin S): ++ (++ means a Ki(cathepsin S)/Ki(calpain) ratio of ≧100)
- Sel cat. L (cathepsin L): ++ (++ means a Ki(cathepsin L)/Ki(calpain) ratio of ≧50)
- Sel cat. B (cathepsin B): ++ (++ means a Ki(cathepsin B)/Ki(calpain) ratio of ≧30)
- Sel cat. K (cathepsin K): + (+ means 10≦Ki(cathepsin K)/Ki(calpain)<30)

Compound: COc1ccc(-c2ccn(-c3ncccc3C(=O)NC(Cc3ccccc3)C(=O)C(N)=O)n2)c(OC)c1 (stereo not drawn) [Example 117, N-[3-Amino-2,3-dioxo-1-(phenylmethyl)propyl]-2-{3-[2,4-bis(methyloxy)phenyl]-1H-pyrazol-1-yl}pyridine-3-carboxamide]
- Sel cat. S (cathepsin S): ++ (++ means a Ki(cathepsin S)/Ki(calpain) ratio of ≧100)
- Sel cat. L (cathepsin L): ++ (++ means a Ki(cathepsin L)/Ki(calpain) ratio of ≧50)
- Sel cat. B (cathepsin B): ++ (++ means a Ki(cathepsin B)/Ki(calpain) ratio of ≧30)
- Sel cat. K (cathepsin K): ++ (++ means a Ki(cathepsin K)/Ki(calpain) ratio of ≧30)

Compound: NC(=O)C(=O)C(Cc1ccccc1)NC(=O)c1cccnc1-n1ccc(-c2ccc3c(c2)OC(F)(F)O3)n1 (stereo not drawn) [Example 118, N-[3-Amino-2,3-dioxo-1-(phenylmethyl)propyl]-2-[3-(2,2-difluoro-1,3-benzodioxol-5-yl)-1H-pyrazol-1-yl]pyridine-3-carboxamide]
- Sel cat. S (cathepsin S): ++ (++ means a Ki(cathepsin S)/Ki(calpain) ratio of ≧100)
- Sel cat. L (cathepsin L): ++ (++ means a Ki(cathepsin L)/Ki(calpain) ratio of ≧50)
- Sel cat. B (cathepsin B): ++ (++ means a Ki(cathepsin B)/Ki(calpain) ratio of ≧30)
- Sel cat. K (cathepsin K): + (+ means 10≦Ki(cathepsin K)/Ki(calpain)<30)

Compound: NC(=O)C(=O)C(Cc1ccccc1)NC(=O)c1cccnc1-n1ccc(-c2cccc3c2OC(F)(F)O3)n1 (stereo not drawn) [Example 119, N-[3-Amino-2,3-dioxo-1-(phenylmethyl)propyl]-2-[3-(2,2-difluoro-1,3-benzodioxol-4-yl)-1H-pyrazol-1-yl]pyridine-3-carboxamide]
- Sel cat. S (cathepsin S): ++ (++ means a Ki(cathepsin S)/Ki(calpain) ratio of ≧100)
- Sel cat. L (cathepsin L): ++ (++ means a Ki(cathepsin L)/Ki(calpain) ratio of ≧50)
- Sel cat. B (cathepsin B): ++ (++ means a Ki(cathepsin B)/Ki(calpain) ratio of ≧30)
- Sel cat. K (cathepsin K): ++ (++ means a Ki(cathepsin K)/Ki(calpain) ratio of ≧30)

Compound: NC(=O)C(=O)C(Cc1ccccc1)NC(=O)c1cccnc1-n1ccc(-c2c(F)ccc(Cl)c2Cl)n1 (stereo not drawn) [Example 120, N-[3-Amino-2,3-dioxo-1-(phenylmethyl)propyl]-2-[3-(2,3-dichloro-6-fluorophenyl)-1H-pyrazol-1-yl]pyridine-3-carboxamide]
- Sel cat. S (cathepsin S): ++ (++ means a Ki(cathepsin S)/Ki(calpain) ratio of ≧100)
- Sel cat. L (cathepsin L): + (+ means 30≦Ki(cathepsin L)/Ki(calpain)<50)
- Sel cat. B (cathepsin B): ++ (++ means a Ki(cathepsin B)/Ki(calpain) ratio of ≧30)
- Sel cat. K (cathepsin K): ++ (++ means a Ki(cathepsin K)/Ki(calpain) ratio of ≧30)

Compound: COc1c(C)cc(C)cc1-c1ccn(-c2ncccc2C(=O)NC(Cc2ccccc2)C(=O)C(N)=O)n1 (stereo not drawn) [Example 121, N-[3-Amino-2,3-dioxo-1-(phenylmethyl)propyl]-2-{3-[3,5-dimethyl-2-(methyloxy)phenyl]-1H-pyrazol-1-yl}pyridine-3-carboxamide]
- Sel cat. S (cathepsin S): ++ (++ means a Ki(cathepsin S)/Ki(calpain) ratio of ≧100)
- Sel cat. L (cathepsin L): ++ (++ means a Ki(cathepsin L)/Ki(calpain) ratio of ≧50)
- Sel cat. B (cathepsin B): ++ (++ means a Ki(cathepsin B)/Ki(calpain) ratio of ≧30)
- Sel cat. K (cathepsin K): ++ (++ means a Ki(cathepsin K)/Ki(calpain) ratio of ≧30)

Compound: NC(=O)C(=O)C(Cc1ccc(F)cc1)NC(=O)c1cccnc1-n1ccc(-c2ccccc2)n1 (stereo not drawn) [Example 123, N-{3-Amino-1-[(4-fluorophenyl)methyl]-2,3-dioxopropyl}-2-(3-phenyl-1H-pyrazol-1-yl)pyridine-3-carboxamide]
- Sel cat. S (cathepsin S): ++ (++ means a Ki(cathepsin S)/Ki(calpain) ratio of ≧100)
- Sel cat. L (cathepsin L): ++ (++ means a Ki(cathepsin L)/Ki(calpain) ratio of ≧50)
- Sel cat. B (cathepsin B): ++ (++ means a Ki(cathepsin B)/Ki(calpain) ratio of ≧30)
- Sel cat. K (cathepsin K): ++ (++ means a Ki(cathepsin K)/Ki(calpain) ratio of ≧30)

Compound: NC(=O)C(=O)C(Cc1ccccc1)NC(=O)c1cccnc1-n1ccc(-c2ccccc2OC(F)(F)F)n1 (stereo not drawn) [Example 124, N-[3-Amino-2,3-dioxo-1-(phenylmethyl)propyl]-2-(3-{2-[(trifluoromethyl)oxy]phenyl}-1H-pyrazol-1-yl)pyridine-3-carboxamide]
- Sel cat. S (cathepsin S): ++ (++ means a Ki(cathepsin S)/Ki(calpain) ratio of ≧100)
- Sel cat. L (cathepsin L): ++ (++ means a Ki(cathepsin L)/Ki(calpain) ratio of ≧50)
- Sel cat. B (cathepsin B): ++ (++ means a Ki(cathepsin B)/Ki(calpain) ratio of ≧30)
- Sel cat. K (cathepsin K): ++ (++ means a Ki(cathepsin K)/Ki(calpain) ratio of ≧30)

Compound: COc1cc(F)ccc1-c1ccn(-c2ncccc2C(=O)NC(Cc2ccccc2)C(=O)C(N)=O)n1 (stereo not drawn) [Example 125, N-[3-Amino-2,3-dioxo-1-(phenylmethyl)propyl]-2-{3-[4-fluoro-2-(methyloxy)phenyl]-1H-pyrazol-1-yl}pyridine-3-carboxamide]
- Sel cat. S (cathepsin S): ++ (++ means a Ki(cathepsin S)/Ki(calpain) ratio of ≧100)
- Sel cat. L (cathepsin L): ++ (++ means a Ki(cathepsin L)/Ki(calpain) ratio of ≧50)
- Sel cat. B (cathepsin B): ++ (++ means a Ki(cathepsin B)/Ki(calpain) ratio of ≧30)
- Sel cat. K (cathepsin K): ++ (++ means a Ki(cathepsin K)/Ki(calpain) ratio of ≧30)

Compound: NC(=O)C(=O)C(Cc1ccc(OCc2ccccc2)cc1)NC(=O)c1cccnc1-n1ccc(-c2ccccc2)n1 (stereo not drawn) [Example 127, N-[3-Amino-2,3-dioxo-1-({4-[(phenylmethyl)oxy]phenyl}methyl)propyl]-2-(3-phenyl-1H-pyrazol-1-yl)pyridine-3-carboxamide]
- Sel cat. S (cathepsin S): ++ (++ means a Ki(cathepsin S)/Ki(calpain) ratio of ≧100)
- Sel cat. L (cathepsin L): ++ (++ means a Ki(cathepsin L)/Ki(calpain) ratio of ≧50)
- Sel cat. B (cathepsin B): ++ (++ means a Ki(cathepsin B)/Ki(calpain) ratio of ≧30)
- Sel cat. K (cathepsin K): ++ (++ means a Ki(cathepsin K)/Ki(calpain) ratio of ≧30)

Compound: COc1ccc(F)cc1-c1ccn(-c2ncccc2C(=O)NC(Cc2ccccc2)C(=O)C(N)=O)n1 (stereo not drawn) [Example 130, N-[3-Amino-2,3-dioxo-1-(phenylmethyl)propyl]-2-{3-[5-fluoro-2-(methyloxy)phenyl]-1H-pyrazol-1-yl}pyridine-3-carboxamide]
- Sel cat. S (cathepsin S): ++ (++ means a Ki(cathepsin S)/Ki(calpain) ratio of ≧100)
- Sel cat. L (cathepsin L): ++ (++ means a Ki(cathepsin L)/Ki(calpain) ratio of ≧50)
- Sel cat. B (cathepsin B): ++ (++ means a Ki(cathepsin B)/Ki(calpain) ratio of ≧30)
- Sel cat. K (cathepsin K): ++ (++ means a Ki(cathepsin K)/Ki(calpain) ratio of ≧30)

Compound: COc1ccc(Cl)cc1-c1ccn(-c2ncccc2C(=O)NC(Cc2ccccc2)C(=O)C(N)=O)n1 (stereo not drawn) [Example 131, N-[3-Amino-2,3-dioxo-1-(phenylmethyl)propyl]-2-{3-[5-chloro-2-(methyloxy)phenyl]-1H-pyrazol-1-yl}pyridine-3-carboxamide]
- Sel cat. S (cathepsin S): ++ (++ means a Ki(cathepsin S)/Ki(calpain) ratio of ≧100)
- Sel cat. L (cathepsin L): ++ (++ means a Ki(cathepsin L)/Ki(calpain) ratio of ≧50)
- Sel cat. B (cathepsin B): ++ (++ means a Ki(cathepsin B)/Ki(calpain) ratio of ≧30)
- Sel cat. K (cathepsin K): ++ (++ means a Ki(cathepsin K)/Ki(calpain) ratio of ≧30)

Compound: NC(=O)C(=O)C(Cc1ccc(OC(F)(F)F)cc1)NC(=O)c1cccnc1-n1ccc(-c2ccc(F)cc2)n1 (stereo not drawn) [Example 132, N-[3-Amino-2,3-dioxo-1-({4-[(trifluoromethyl)oxy]phenyl}methyl)propyl]-2-[3-(4-fluorophenyl)-1H-pyrazol-1-yl]pyridine-3-carboxamide]
- Sel cat. S (cathepsin S): ++ (++ means a Ki(cathepsin S)/Ki(calpain) ratio of ≧100)
- Sel cat. L (cathepsin L): ++ (++ means a Ki(cathepsin L)/Ki(calpain) ratio of ≧50)
- Sel cat. B (cathepsin B): + (+ means 10≦Ki(cathepsin B)/Ki(calpain)<30)
- Sel cat. K (cathepsin K): ++ (++ means a Ki(cathepsin K)/Ki(calpain) ratio of ≧30)

Compound: NC(=O)C(=O)C(Cc1ccc(OC(F)(F)F)cc1)NC(=O)c1cccnc1-n1ccc(-c2ccccc2)n1 (stereo not drawn) [Example 133]
- Sel cat. S (cathepsin S): ++ (++ means a Ki(cathepsin S)/Ki(calpain) ratio of ≧100)
- Sel cat. L (cathepsin L): ++ (++ means a Ki(cathepsin L)/Ki(calpain) ratio of ≧50)
- Sel cat. B (cathepsin B): ++ (++ means a Ki(cathepsin B)/Ki(calpain) ratio of ≧30)
- Sel cat. K (cathepsin K): ++ (++ means a Ki(cathepsin K)/Ki(calpain) ratio of ≧30)
